Measurements as given in paper PMC9124820, “In vitro evaluation of fenfluramine and norfenfluramine as victims of drug interactions” (Pharmacology Research & Perspectives, 2022).

Assays:
OAT1 = target: T1, OAT1 (Homo sapiens, UniProt Q4U2R8); test: Transporter substrate determination, uptake in HEK293-OAT1 cells; format: in vitro ADME; conditions: for Maximum Ratio (uptake in transporter‐expressing cells to empty‐vector control cells): HEK293‐OAT1, 0.1, 1, 10 µM, threshold ≥2‐fold; for substrate of the transporter: OAT1
T1 construct: host or cells: HEK293
T1 sequence (Q4U2R8 1-563): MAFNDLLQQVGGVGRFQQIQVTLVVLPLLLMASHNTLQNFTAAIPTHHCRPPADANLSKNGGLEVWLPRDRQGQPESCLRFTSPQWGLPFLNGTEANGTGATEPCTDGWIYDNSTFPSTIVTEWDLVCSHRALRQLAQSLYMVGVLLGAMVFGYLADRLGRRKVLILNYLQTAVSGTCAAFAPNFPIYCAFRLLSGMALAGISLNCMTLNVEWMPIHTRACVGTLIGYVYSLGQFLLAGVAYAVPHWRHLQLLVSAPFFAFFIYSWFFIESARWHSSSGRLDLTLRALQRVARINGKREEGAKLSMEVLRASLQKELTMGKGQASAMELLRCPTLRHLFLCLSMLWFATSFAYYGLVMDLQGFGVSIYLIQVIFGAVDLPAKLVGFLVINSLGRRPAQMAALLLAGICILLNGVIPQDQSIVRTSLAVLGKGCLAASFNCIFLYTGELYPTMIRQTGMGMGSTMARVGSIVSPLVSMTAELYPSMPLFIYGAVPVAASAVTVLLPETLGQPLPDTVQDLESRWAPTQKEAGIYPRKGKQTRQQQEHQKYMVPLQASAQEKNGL
Experimental: LC‐MS/MS analyses to assess metabolic stability and identify the transporter substrate were performed using an API 4000 QTRAP mass spectrometer (SCIEX, Framingham, MA) with electrospray ionization in positive mode. Chromatography was performed using an Atlantis dC18 analytical column (100 × 2.1 mm, 5 µm; Waters Corporation, Milford, MA). Mobile phases were 0.2% v/v formic acid in water and 0.2% v/v formic acid in acetonitrile. For metabolic stability experiments, FFA and metabolites were eluted at a flow rate of 0.6 mL/min, with a linear gradient of 20%−80% acetonitrile from 0.30−2.0 min. For transporter substrate experiments, the gradient was slightly modified to achieve suitable chromatography. The mass transitions monitored were 232.0 > 159.0 for FFA and 348.0 > 330.0 for 1ʹ‐OH‐midazolam‐d4 internal standard.
FFA and nFFA were evaluated as substrates of the transporters breast cancer resistance protein (BCRP), organic anion transporter (OAT)1, OAT3, organic cation transporter (OCT)2, MATE1, MATE2‐K, and P‐glycoprotein multidrug transporter (P‐gp; also known as MDR1 and ABCB1), according to published methods.[25], [26], [27], [28], [29] Madin‐Darby canine kidney (MDCKII)‐BCRP cells (Netherlands Cancer Institute, Amsterdam, Netherlands) or human embryonic kidney (HEK)293 cells transfected with other transporters (Sekisui Medical Co., Ltd., Tokyo, Japan) were used. Transporter‐transfected and control cells were incubated with FFA or nFFA (0.1, 1, or 10 μM), and the amount of FFA and nFFA accumulated in the cells was measured by LC‐MS/MS as described above. The accumulation of positive control substrates in the presence and absence of an inhibitor served as a positive control for transporter function. […] BCRP substrate determination was made by bi‐directional permeability across MDCKII‐BCRP and control cells cultured on 24‐well transwell plates. Incubation medium containing probe substrate was added. Ten minutes later, transepithelial electrical resistance (TEER) was recorded and cells were preincubated at 37 ± 2°C for 30−60 min before FFA or nFFA or positive control substrate with the solvent control or positive control inhibitor was added to the donor (apical) chamber. […] Samples containing FFA, nFFA, or probe substrate were mixed with internal standard and analyzed by LC‐MS/MS. […] An aliquot was added to 96‐well plate containing scintillation fluid that was analyzed by a MicroBeta^2 scintillation counter (Perkin Elmer, Waltham, MA). Protein concentration was determined by a bicinchoninic acid (BCA) protein assay according to the manufacturer’s protocol (Thermo Fisher Scientific, Waltham, MA). Non‐radiolabeled compounds were resuspended in a 50:50 v/v methanol:water solution containing internal standard and were analyzed by LC‐MS/MS. […]

[1] = Substrate loss and nFFA formation over time in human liver microsomes; format: in vitro ADME
From the text: Microsomes from a mixed‐gender pool of 200 non‐transplantable human livers (Sekisui XenoTech, LLC, Kansas City, KS) were characterized as described.[20], [21] Human recombinant CYP450s (rCYP450s) and control membranes from Escherichia coli transfected with empty expression plasmid or plasmid expressing nicotinamide adenine dinucleotide phosphate (hydrogen) (NADPH)‐CYP450 oxidoreductase without CYP450 enzymes were obtained from Cypex, Ltd. Metabolite identification and stability studies used human liver S9 fractions (containing both microsomal and cytosolic fractions of the cell) from pooled human liver (n = 50) and intestine (n = 10), pooled canine liver (n = 8) and intestine (n = 7), and pooled rat liver (n = 454) and intestine (n = 199). All rCYP450 enzymes except rCYP1A2 and rCYP2D6 were expressed with cytochrome b5.
For FFA and nFFA reaction phenotyping experiments, LC‐MS/MS experiments were performed using an API 4000 QTRAP or QTRAP 5500 mass spectrometer (SCIEX) with positive electrospray ionization. Chromatography was performed using an Atlantis dC18 analytical column (100 × 2.1 mm, 5 µm; Waters Corporation). Mobile phases were 0.2% v/v formic acid in water and 0.2% v/v formic acid in methanol. FFA and nFFA were eluted at a flow rate of 0.5 mL/min with a linear gradient of 40%−95% methanol from 0.20−2.1 min. The mass transitions monitored were 232.0>109.0 for FFA, 204.0>159.0 for nFFA, 348.0>330.0 for 1’‐hydroxymidazolam‐d4 internal standard (FFA reaction phenotyping), and 262.0>244.0 for hydroxybupropion‐d6 internal standard (nFFA reaction phenotyping). Analyst Instrument Control and Data Processing software (v. 1.6.1) was used for collecting and integrating data (SCIEX). Calibration curves ranging from 1.25 µM−0.01 µM were used to quantify nFFA. Relative quantitation was used to approximate the amount of FFA test material used.
The line of best‐fit for calibration standards was calculated by weighted (1/x) linear regression based on peak‐area ratios of analyte to the internal standard using Analyst Instrument Control and Data Processing software (version 1.6.1; SCIEX). Mean analyte peak‐area ratio at each time point was normalized to controls at t = 0 min (100%).

SMILES: CCNC(C)Cc1cccc(C(F)(F)F)c1 (racemic) [FFA, (RS)‐ethyl (α‐methyl‐3‐trifluoromethylphenethyl)amine]
- Maximum Ratio (uptake in transporter‐expressing cells to empty‐vector control cells) (OAT1): 1.22
- substrate of the transporter (OAT1): not substrates
- FFA substrate loss ([1]; human liver microsomes 1 mg protein/mL, 1−100 µM FFA, all concentrations and times tested): ≤ 7.7%
- substrate remaining in the absence of NADPH ([1]; human liver microsomes, FFA, absence of NADPH): ~ 100%

SMILES: CC(N)Cc1cccc(C(F)(F)F)c1.Cl (centres unmarked) [nFFA, 1‐(3‐(trifluoromethyl)phenyl)propan‐2‐amine hydrochloride]
- Maximum Ratio (uptake in transporter‐expressing cells to empty‐vector control cells) (OAT1): 1.13
- substrate of the transporter (OAT1): not substrates
- nFFA substrate loss in the absence of microsomal protein ([1]; control without microsomal protein): no substrate loss detected
- nFFA substrate loss in the absence of the NADPH‐generating system ([1]; human liver microsomes, no NADPH-generating system): 1.2%
